Data taken from US5077292A, “(2-imidazolin-2-ylamino) tetrahydroquinoxalines and methods for using same” (priority 1989, dated 1991).

Columns and labels:
[1] = target: T1, Alpha 2 Adrenergic Receptors (Oryctolagus cuniculus, UniProt Q5ZQK3); test: Rabbit Vas Deferens: Alpha 2 Adrenergic Receptors; format: cell-based, New Zealand white rabbit; conditions: 35° C., field stimulated, 50% reduction in response height, n = number of test runs
T1 construct: from tissue; host or cells: New Zealand white rabbit vas deferens, prostatic end, field stimulated
T1 sequence (Q5ZQK3 1-451): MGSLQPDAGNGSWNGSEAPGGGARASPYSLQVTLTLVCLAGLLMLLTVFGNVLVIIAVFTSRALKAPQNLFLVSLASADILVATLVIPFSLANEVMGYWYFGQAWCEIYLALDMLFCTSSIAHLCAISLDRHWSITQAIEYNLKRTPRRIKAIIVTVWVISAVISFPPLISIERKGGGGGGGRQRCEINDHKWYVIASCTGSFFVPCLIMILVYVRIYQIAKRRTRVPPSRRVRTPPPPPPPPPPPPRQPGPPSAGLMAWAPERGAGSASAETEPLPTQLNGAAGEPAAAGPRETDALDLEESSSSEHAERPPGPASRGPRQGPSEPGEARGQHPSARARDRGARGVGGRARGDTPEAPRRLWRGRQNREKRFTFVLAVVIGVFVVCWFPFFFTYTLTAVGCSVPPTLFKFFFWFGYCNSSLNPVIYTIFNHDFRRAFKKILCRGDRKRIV
Method: (§1) The tetrahydroquinoxalines produced in Examples 1 to 3 were tested for activity using the following in vitro methods.
Rabbit Vas Deferens: Alpha 2 Adrenergic Receptors
New Zealand white rabbits (2-3 kg) were killed by CO2 inhalation and the vasa deferentia removed. The prostatic ends of the vasa deferentia (2-3 cm lengths) were mounted between platinum ring electrodes in 9 ml organ baths and bathed in Krebs bicarbonate solution of the following composition (millimolar): NaCl 118.0; KCl 4.7; CaCl2 2.5; MgSO4 1.2; KH2 PO4 1.2; glucose 11.0; NaHCO3 25.0; which solution was maintained at 35° C. and bubbled with 95% O2 and 5% CO2. The initial tension of the vas deferens was 0.5 g. The tissues were left to equilibrate for 30 minutes before stimulation was started. Vasa were then field stimulated (0.1 Hz, 2 ms pulse width at 90 mA) using a square wave stimulator (WPI A310 Accupulser with A385 stimulus). […] Cumulative concentration-response curves were obtained for the tetrahydroquinoxaline being tested with a 4 minute contact time at each concentration. The reduction in response height was measured and expressed as a percentage of the height of the response before the addition of tetrahydroquinxoaline. Concentration response curves for each of tetrahydroquinoxalines were plotted. The effective concentration required for a 50% reduction in response height, expressed as EC50, were obtained from these curves and are set forth below.

[2] = system: Alpha 3 Adrenergic Receptors; test: Rabbit Saphenous Vein: Alpha 3 Adrenergic Receptors; format: cell-based, albino rabbit; conditions: rabbit saphenous vein rings, 37° C., field stimulated; n = number of test runs
Method: as §1
Rabbit Saphenous Vein: Alpha 3 Adrenergic Receptors
Thoracic aorta and saphenous vein specimens were obtained from albino rabbits that were killed by CO2 inhalation. The aorta and saphenous vein were each cut into 3 mm rings. Tissues were placed in Krebs-Hensleit solution of the following composition (millimolar): NaCl 119; KCl 4.7; MgSO4 1.5, KH2 PO4 1.2; CaCl2 2.5; NaHCO3 25 and glucose 11.0. The solution also contained cocaine (0.1 millimolar) to block neuronal uptake and EDTA (30 micromolar) and ascorbic acid (5 micromolar) to prevent oxidation of the tetrahydroquinoxaline being tested. Tissues were hung in 10 ml organ baths and tension was measured via Grass FT03 force-displacement transducers. Resting tension was 1 g and 2 g for the saphenous vein and aorta, respectively. The solution was gassed with 95% O2 and 5% CO2 and maintained at 37° C. Tissues were allowed to equilibrate for 2 hours before stimulation and the cumulative addition of the tetrahydroquinoxaline being treated was started. Tissue stimulation was performed as with the rabbit vas deferens, described above. The contractions of the tissue were recorded isometrically as for the rabbit vas deferens assay. […]

[3] = system: Alpha 1 Adrenergic Receptors; test: Rabbit Aorta: Alpha 1 Adrenergic Receptors; format: cell-based, albino rabbit; conditions: rabbit aorta rings, 37° C., field stimulated; n = number of test runs
Method: as §1
Rabbit Aorta: Alpha 1 Adrenergic Receptors
Thoracic aorta and saphenous vein specimens were obtained from albino rabbits that were killed by CO2 inhalation. The aorta and saphenous vein were each cut into 3 mm rings. Tissues were placed in Krebs-Hensleit solution of the following composition (millimolar): NaCl 119; KCl 4.7; MgSO4 1.5, KH2 PO4 1.2; CaCl2 2.5; NaHCO3 25 and glucose 11.0. The solution also contained cocaine (0.1 millimolar) to block neuronal uptake and EDTA (30 micromolar) and ascorbic acid (5 micromolar) to prevent oxidation of the tetrahydroquinoxaline being tested. Tissues were hung in 10 ml organ baths and tension was measured via Grass FT03 force-displacement transducers. Resting tension was 1 g and 2 g for the saphenous vein and aorta, respectively. The solution was gassed with 95% O2 and 5% CO2 and maintained at 37° C. Tissues were allowed to equilibrate for 2 hours before stimulation and the cumulative addition of the tetrahydroquinoxaline being treated was started. Tissue stimulation was performed as with the rabbit vas deferens, described above. The contractions of the tissue were recorded isometrically as for the rabbit vas deferens assay. Cumulative concentration response curves were obtained and the EC50 valve developed for each tetrahydroquinoxaline tested in a manner similar to that for the rabbit vas deferens assay.

intraocular pressure = test: effect on intraocular pressure, topical unilateral administration to rabbit eye; format: in vivo, New Zealand white rabbit; conditions: 0.1% (W/V); for Difference In Intraocular Pressure, Initial Effect On Treated Eye / Difference In Intraocular Pressure, Maximum Effect on Treated Eye / Difference In Intraocular Pressure, Maximum Effect On Untreated Eye: single 50 micro liter drop, N.S. = not statistically significant; for Difference In Intraocular Pressure, Maximum Effect On Untreated Eye: untreated (contralateral) eye; for effect on intraocular pressure in the treated eye (in words): treated rabbit eye
Method: The three (3) tetrahydroquinoxaline derivatives produced in accordance with Examples 1 to 3 were tested to determine what effect, if any, these materials have on intraocular pressure.
Each of these materials was dissolved in distilled water at a concentration of 0.1% (W/V). Each of these solutions was administered topically and unilaterally to one eye of a drug-naive, unanesthetized New Zealand white rabbit in a single 50 micro liter drop. The contralateral eye received an equal volume of saline prior to determining the intraocular pressure after the mixture was administered. Also, approximately 10 micro liters of 0.5% (W/V) proparacaine (topical anesthetic) was applied to the corneas of each of the rabbits before determining intraocular pressure. As a control test, six (6) other drug-naive, unanesthetized New Zealand white rabbits were treated and tested as described above except that no tetrahydroquinoxaline derivative was included in the solutions administered to the eyes.
The intraocular pressure was determined in both eyes of each rabbit before and after the solutions were administered. Such intraocular pressure determinations were made in the conventional manner using conventional equipment.

EC50 [2]	EC50 [3]	Compound	EC50 [1]	Difference In Intraocular Pressure, Initial Effect On Treated Eye (intraocular pressure)	Difference In Intraocular Pressure, Maximum Effect on Treated Eye (intraocular pressure)	Difference In Intraocular Pressure, Maximum Effect On Untreated Eye (intraocular pressure)	effect on intraocular pressure in the treated eye (in words) (intraocular pressure)	effect on intraocular pressure in the untreated eye (in words) (intraocular pressure; untreated rabbit eye)
581 ± 29 nM	6750 ± 116 nM	CC1CNc2c(ccc(NC3=NCCN3)c2Br)N1 (racemic) [Example 2, (±)2-Methyl-5-bromo-6-(2-imidazolin-2-ylamino)-1,2,3,4-tetrahydroquinoxaline]	35.3 ± 3.9 nM	N.S.	-15.1 ± 3.3%	-8.6 ± 2.4%	effective to reduce intraocular pressure in the treated rabbit eye	reducing the intraocular pressure in the untreated rabbit eye
–	1060 ± 271 nM	CC1CNc2ccc(NC3=NCCN3)c(Br)c2N1 (racemic) [Example 3, (±) 3-Methyl-5-bromo-6-(2-imidazolin-2-ylamino)-1,2,3,4-tetrahydroquinoxaline]	21.3 ± 3 nM	N.S.	-12.5 ± 2.2%	N.S.	effective to reduce intraocular pressure in the treated rabbit eye	–
